“And” between values parts separate entries of the source, which are not always exact repeats. Identical values can stand only once. Like-named read-outs stand apart in the source and are kept apart here.
System: Klebsiella isolates
Assay: Acoustic flow cytometry-assisted susceptibility test (FAST), MICFAST and S/NS, Klebsiella isolates
Format: cell-based, Klebsiella pneumoniae, Klebsiella oxytoca
Description: A 1 mL aliquot of bacterial suspension was centrifuged, washed and resuspended in 1 mL filtered Hank's Buffered Salt Solution (HBSS; comprising about 0.137 M NaCl, about 5.4 mM KCl, about 0.25 mM Na2HPO4, about 0.1 g Glucose, about 0.44 mM KH2PO4, 1.3 mM CaCl2), 1.0 mM MgSO4, about 1.3 mM CaCl2), 1.0 mM MgSO4, and about 4.2 mM NaHCO3) and diluted in series (e.g., in a 1:10 serial dilution) to a final 1:1000 dilution.
One μL (microliter) of SYTO 9 stain (e.g., ThermoFisher Scientific) working stock solution was added to the final dilution at a final concentration of 5 μM and incubated for 5 minutes before counting bacterial events by acoustic flow cytometer (AFC) (Attune, ThermoFisher, Eugene, Oreg., USA), which was used to prepare a standardised inoculum density for susceptibility testing.
An aliquot of bacterial suspension was added to 50 mL centrifuge tubes (Corning, N.Y.) containing 9 mL of pre-warmed (37° C.) filtered MHB to produce a final density of 5×10^5-1×10^6 bacteria per mL. This suspension was incubated at 37° C. with shaking at 100 RPM for 30 minutes to obtain an actively dividing culture. An aliquot of antibiotic working solution from the previously described dilution series (appropriate to the concentration tested) was then added to each tube before a further 30-minute incubation with shaking, during which time a microbroth dilution (MBD) plate was prepared for overnight incubation at 37° C. as previously described in Clinical and Laboratory Standards Institute (2015) Performance Standards for Antimicrobial Susceptibility Testing: Informational Supplement. CLSI document M100-S25. Clinical and Laboratory Standards Institute, 950, West Valley Road, Suite 2500, Wayne, Pa., 19087, USA.
One millilitre of bacterial suspension from each antibiotic concentration was harvested by centrifugation at 7800×g for 5 minutes, washed and diluted 1:10 in filtered HBSS in a light-impermeable microcentrifuge tube, then stained with SYTO 9 stain at a final concentration of 5 μM, and incubated for 5 min before AFC sampling. Hoechst 33342 dye (NucBlue, Thermo Fisher Scientific, Eugene, Oreg., USA) and a SYTO 9/propidium iodide (PI) combination (Thermo Fisher Scientific) were used in a series of replicate experiments.
The acoustic flow cytometer employed was Attune acoustic flow cytometer (Thermo Fisher Scientific), having installed therein a 488 nm blue laser with a 530/30 nm filter on the photomultiplier tube for measuring fluorescence of cells assayed. Alternatively, the Attune NxT acoustic flow cytometer (Thermo Fisher Scientific) can be employed. AFC was calibrated at the beginning of each acquisition session using fluorescently labelled size calibration beads, in accordance with the manufacturer's instructions (ThermoFisher Scientific). The AFC settings were as follows: Forward Scatter (FSC) voltage 3100, FSC threshold 4×1000 AND, blue laser 1 (BL1—530/30 nm) voltage 1900, BL1 threshold 1×1000 AND, high sensitivity, flow rate 25 μL/minute, and an acquisition volume of 125 μL. Acquisition was halted after either collection of 20,000 events across all gates, or after 3 minutes, with each sample acquired in technical triplicate.
Collected data was exported in the FCS 3.0 file format and analysed in Flow v10.0 (FlowJo LLC, Ashland, Oreg., USA) by a single user, blinded to the MIC results by BMD (MICBMD).
Subsequent to quantitative MICFAST determination, the acoustic flow cytometer data were re-analysed in silico to produce a limited sub-set for qualitative susceptibility determination. The six antibiotic dilutions (0 mg/L, 0.25 mg/L, 1 mg/L, 2 mg/L, 4 mg/L and 16 mg/L) most relevant to qualitative susceptibility assessment were used. In silico analysis was restricted to the first technical triplicate of each recorded sample. Gating strategies remained consistent, with the addition of a gate restricting analysis to only those events recorded in the first 60 seconds of acquisition.

[1] = K. pneumoniae isolate 18397, biological replicates
[2] = K. pneumoniae isolate 43292, biological replicates
[3] = K. pneumoniae isolate 43358, biological replicates
[4] = K. pneumoniae isolate 44271, biological replicates
[5] = K. pneumoniae isolate ATCC 700603, biological replicates
[6] = K. pneumoniae isolate ATCC BAA1705, biological replicates
[7] = K. pneumoniae isolate K1, biological replicates
[8] = K. pneumoniae isolate K14, biological replicates
[9] = K. pneumoniae isolate KS11, biological replicates
[10] = isolate 3000770, England, NDM-1
[11] = isolate 3040820, England, pAmpC
[12] = isolate ATCC BAA 1705, USA, KPC
[13] = isolate K16, Australia, IMP - 4
[14] = isolate K23, Australia, IMP - 4
[15] = isolate KS1, Sri Lanka, OXA-181
[16] = isolate KS2, Sri Lanka, OXA-181
[17] = isolate KS17, Sri Lanka, OXA-181
[18] = isolate KS23, Sri Lanka, OXA-181

## C[C@@H](O)[C@H]1C(=O)N2C(C(=O)O)=C(S[C@@H]3CN[C@H](C(=O)N(C)C)C3)[C@H](C)[C@H]12 [meropenem]
K. pneumoniae ATCC 700603 (carbapenem susceptible control), limited clinical screen concentrations
  MICFAST: ≤0.25
K. pneumoniae ATCC BAA1705 (carbapenem resistant control), limited clinical screen concentrations
  MICFAST: >16
[1]
  FAST S/NS: S (S: MIC ≤2 mg/L)
  MICFAST: ≤0.25 mg/L
[2]
  FAST S/NS: S (S: MIC ≤2 mg/L)
  MICFAST: ≤0.25 mg/L
[3]
  FAST S/NS: S (S: MIC ≤2 mg/L)
  MICFAST: ≤0.25 mg/L
[4]
  FAST S/NS: S (S: MIC ≤2 mg/L)
  MICFAST: 0.5 mg/L
[5]
  FAST S/NS: S (S: MIC ≤2 mg/L)
  MICFAST: ≤0.25 mg/L
[6]
  FAST S/NS: NS (NS: MIC >2 mg/L)
  MICFAST: 8 mg/L
[7]
  FAST S/NS: NS (NS: MIC >2 mg/L)
  MICFAST: 64 mg/L (2×) and 32 mg/L
[8]
  FAST S/NS: NS (NS: MIC >2 mg/L)
  MICFAST: 256 mg/L
K. pneumoniae isolate K16 (IMP-4), rough colony variant
  MICFAST: 64 mg/L
K. pneumoniae isolate K16 (IMP-4), smooth colony variant
  MICFAST: 2 mg/L
K. pneumoniae isolate K16, subculture of Day 1 meropenem-exposed culture, read-out: MIC by FAST on Day 2
  MIC: 4 µg/mL
K. pneumoniae isolate KS1, biological replicates
  MICFAST: 4 mg/L and 1 mg/L and 2 mg/L
[9]
  FAST S/NS: S (S: MIC ≤2 mg/L)
  MICFAST: 1 mg/L (2×) and 2 mg/L
K. pneumoniae susceptible type strain ATCC 700603, read-out: isolate's MIC (new contouring focus formed, FIG. 3A)
  MIC: 0.25 µg/mL
Highly resistant clinical K. pneumoniae strain K8, clinically relevant meropenem concentrations
  susceptibility-associated signature by AFC bi-axial plot (FIG. 3B): absence of susceptibility-associated signature
Isolate 194, Sweden, VIM
  FAST S/NS: NS (NS = MIC >2 mg/L)
  MICFAST: 16 mg/L
Isolate 374, Sweden, VIM
  FAST S/NS: NS (NS = MIC >2 mg/L)
  MICFAST: 32 mg/L
Isolate 3354, Australia
  FAST S/NS: S (S = MIC ≤2 mg/L)
  MICFAST: 0.5 mg/L
Isolate 10924, Sweden, KPC
  FAST S/NS: S (S = MIC ≤2 mg/L)
  MICFAST: 0.5 mg/L
Isolate 18397, Australia
  FAST S/NS: S (S = MIC ≤2 mg/L)
  MICFAST: ≤0.25 mg/L
Isolate 43288, Australia
  FAST S/NS: S (S = MIC ≤2 mg/L)
  MICFAST: ≤0.25 mg/L
Isolate 43292, Australia
  FAST S/NS: S (S = MIC ≤2 mg/L)
  MICFAST: ≤0.25 mg/L
Isolate 43358, Australia
  FAST S/NS: S (S = MIC ≤2 mg/L)
  MICFAST: ≤0.25 mg/L
Isolate 43854, Australia
  FAST S/NS: S (S = MIC ≤2 mg/L)
  MICFAST: ≤0.25 mg/L
Isolate 44271, Australia
  FAST S/NS: S (S = MIC ≤2 mg/L)
  MICFAST: 0.5 mg/L
Isolate 51575, Sweden, ESBL
  FAST S/NS: S (S = MIC ≤2 mg/L)
  MICFAST: ≤0.25 mg/L
Isolate 70708, Sweden, KPC
  FAST S/NS: NS (NS = MIC >2 mg/L)
  MICFAST: 32 mg/L
Isolate 71076, Sweden, KPC
  FAST S/NS: NS (NS = MIC >2 mg/L)
  MICFAST: 32 mg/L
Isolate 200822, Sweden, KPC
  FAST S/NS: NS (NS = MIC >2 mg/L)
  MICFAST: 8 mg/L
Isolate 270902, England
  FAST S/NS: S (S = MIC ≤2 mg/L)
  MICFAST: ≤0.25 mg/L
Isolate 500638, Sweden, pAmpC
  FAST S/NS: S (S = MIC ≤2 mg/L)
  MICFAST: 2 mg/L
Isolate 515870, Sweden, ESBL
  FAST S/NS: S (S = MIC ≤2 mg/L)
  MICFAST: ≤0.25 mg/L
Isolate 2440606, England
  FAST S/NS: S (S = MIC ≤2 mg/L)
  MICFAST: ≤0.25 mg/L
Isolate 2880622, England
  FAST S/NS: S (S = MIC ≤2 mg/L)
  MICFAST: ≤0.25 mg/L
Isolate 2880654, England, KPC
  FAST S/NS: NS (NS = MIC >2 mg/L)
  MICFAST: 32 mg/L
Isolate 2890369, England
  FAST S/NS: S (S = MIC ≤2 mg/L)
  MICFAST: 0.5 mg/L
Isolate 2980639, England
  FAST S/NS: S (S = MIC ≤2 mg/L)
  MICFAST: 0.5 mg/L
[10]
  FAST S/NS: NS (NS = MIC >2 mg/L)
  MICFAST: 8 mg/L
[11]
  FAST S/NS: S (S = MIC ≤2 mg/L)
  MICFAST: ≤0.25 mg/L
Isolate 3080800, England, KPC
  FAST S/NS: NS (NS = MIC >2 mg/L)
  MICFAST: 32 mg/L
Isolate A1, Norway
  FAST S/NS: S (S = MIC ≤2 mg/L)
  MICFAST: ≤0.25 mg/L
Isolate A2, Norway
  FAST S/NS: S (S = MIC ≤2 mg/L)
  MICFAST: ≤0.25 mg/L
Isolate A3, Norway
  FAST S/NS: S (S = MIC ≤2 mg/L)
  MICFAST: ≤0.25 mg/L
Isolate A4, Norway
  FAST S/NS: S (S = MIC ≤2 mg/L)
  MICFAST: ≤0.25 mg/L
Isolate A7, Norway
  FAST S/NS: S (S = MIC ≤2 mg/L)
  MICFAST: ≤0.25 mg/L
Isolate A13, Norway
  FAST S/NS: S (S = MIC ≤2 mg/L)
  MICFAST: ≤0.25 mg/L
Isolate A15, Norway
  FAST S/NS: S (S = MIC ≤2 mg/L)
  MICFAST: ≤0.25 mg/L
Isolate A16, Norway
  FAST S/NS: S (S = MIC ≤2 mg/L)
  MICFAST: ≤0.25 mg/L
Isolate A20, Norway, NDM-1
  FAST S/NS: NS (NS = MIC >2 mg/L)
  MICFAST: 16 mg/L
Isolate ATCC 700603, USA
  FAST S/NS: S (S = MIC ≤2 mg/L)
  MICFAST: ≤0.25 mg/L
[12]
  FAST S/NS: NS (NS = MIC >2 mg/L)
  MICFAST: 8 mg/L
Isolate ATCC BAA 1706, USA
  FAST S/NS: S (S = MIC ≤2 mg/L)
  MICFAST: ≤0.25 mg/L
Isolate K1, Australia, OXA-181
  FAST S/NS: NS (NS = MIC >2 mg/L)
  MICFAST: 32 mg/L
Isolate K2, Australia, OXA-181
  FAST S/NS: NS (NS = MIC >2 mg/L)
  MICFAST: 32 mg/L
Isolate K8, Australia, NDM-1
  FAST S/NS: NS (NS = MIC >2 mg/L)
  MICFAST: >256 mg/L
Isolate K14, Australia, KPC
  FAST S/NS: NS (NS = MIC >2 mg/L)
[13]
  FAST S/NS: S (S = MIC ≤2 mg/L)
  MICFAST: 2 mg/L
[14]
  FAST S/NS: S (S = MIC ≤2 mg/L)
  MICFAST: 0.5 mg/L
[15]
  FAST S/NS: S (S = MIC ≤2 mg/L)
  MICFAST: 2 mg/L
[16]
  FAST S/NS: NS (NS = MIC >2 mg/L)
  MICFAST: 16 mg/L
[17]
  FAST S/NS: NS (NS = MIC >2 mg/L)
  MICFAST: 64 mg/L
[18]
  FAST S/NS: NS (NS = MIC >2 mg/L)
  MICFAST: 64 mg/L
Isolate N17, Sweden, NDM-1
  FAST S/NS: NS (NS = MIC >2 mg/L)
  MICFAST: 32 mg/L

— US20210292807A1, “METHOD FOR TESTING ANTIMICROBIAL SUSCEPTIBILITY” (priority 2017, published 2021)
